Test results as given in ChEMBL document CHEMBL1201862, “PubChem BioAssay data set” (2004).
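96-well plates; 48 h exposure; 5 concentrations. Endpoints by linear interpolation between flanking doses. Not reached: highest tested concentration assigned. Here, GI50 denotes the concentration required for 50% inhibition of growth.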 The source made the active and inactive calls. Rule as the data show it: active = GI50 up to about 1.1 µM and inactive = higher.

Key:
Assay in all cases: NCI tumour cell line growth inhibition, 48 h
DMS-273 = system: DMS-273
HOP-18 = system: HOP-18
RXF 631 = system: RXF 631
786-0 = system: 786-0
PC-3 = system: PC-3
Hs-578T = system: Hs-578T
T47D = system: T47D
DU-145 = system: DU-145
MDA-MB-435 = system: MDA-MB-435

Measured: GI50

O=C1ON(Cc2ccccc2)C(c2ccccc2)N1c1ccccc1 (stereo not drawn)
inactive: DMS-273 > 100 µM | HOP-18 > 100 µM

O=NN1C(c2ccccc2)CCCC1c1ccccc1 (stereo not drawn)
inactive: DMS-273 39.8 µM | HOP-18 > 77.8 µM

CC(OC(C)(C)C)[C@H](NC(=O)OCC(Cl)(Cl)Cl)C(=O)O (stereo partly drawn)
inactive: DMS-273 > 100 µM

CCOC(=O)C(Cc1ccccc1)NC(=O)OC(C)(C)C (stereo not drawn)
inactive: DMS-273 > 100 µM | RXF 631 > 100 µM | 786-0 > 100 µM

COc1ccc(-c2cc(-c3cc(OC)c(OC)c(OC)c3)cc(-c3cc4ccccc4oc3=O)n2)cc1
inactive: PC-3 19.6 µM | Hs-578T 2.38 µM | 786-0 2.16 µM | T47D 7.19 µM | DU-145 9.53 µM | MDA-MB-435 16.7 µM

O=C(/C=C/c1cccc2ccccc12)c1ccccc1Cl
inactive: DMS-273 14.4 µM | RXF 631 18.1 µM | 786-0 14 µM | HOP-18 17.1 µM

Clc1cc2c(c(CSC3=NCN(CC4CC4)CN3)c1)OCOC2
inactive: PC-3 23 µM | Hs-578T 33.7 µM | 786-0 19.8 µM | T47D 12.9 µM | DU-145 26.1 µM | MDA-MB-435 21.8 µM

Cc1ccc(NC(=O)CC(=O)n2nc(-c3ccccc3)c(/N=N/c3ccccc3Cl)c2-c2ccccc2)cc1
inactive: DMS-273 41.8 µM | RXF 631 96.2 µM | 786-0 32.6 µM | HOP-18 38.1 µM

COc1ccc2c(c1)CCN=C2Cc1cc(OC)c(OC)cc1CCCl
inactive: PC-3 48 µM | Hs-578T 22.1 µM | T47D 53.1 µM | DU-145 > 100 µM | MDA-MB-435 52 µM

O=C1C=CC2=[N+]([O-])C(c3ccccc3)(c3ccccc3)/C(=N\c3ccccc3)C2=C1
inactive: DMS-273 2.38 µM | RXF 631 3.05 µM | HOP-18 2.92 µM

N#CC1(C#N)C(=O)c2ccncc2C1=O
inactive: PC-3 > 100 µM | Hs-578T > 100 µM | T47D > 100 µM | DU-145 > 100 µM | MDA-MB-435 > 100 µM

C=C(C)[C@@H]1CCC2=C[C@H](CC(C)=CC3=CC(C)=C(O3)[C@@H]1OC)OC2=O
inactive: PC-3 83.8 µM | Hs-578T 33.6 µM | T47D > 100 µM | DU-145 > 100 µM | MDA-MB-435 > 100 µM

CCOC(=O)c1ccc(N(CCOS(=O)(=O)c2ccc(C)cc2)CCOS(=O)(=O)c2ccc(C)cc2)cc1
inactive: PC-3 17 µM | Hs-578T > 100 µM | MDA-MB-435 > 100 µM

CCOC(=O)CC(=O)CSc1c(-c2ccccc2)c(=O)n(-c2ccccc2)c(=S)n1-c1ccccc1
inactive: PC-3 > 100 µM | Hs-578T > 100 µM | 786-0 > 100 µM | T47D > 100 µM | DU-145 > 100 µM | MDA-MB-435 > 100 µM

Cc1ccc(Nc2n[nH]c(NS(=O)(=O)c3cc(C(=O)Nc4ccc(Cl)cc4)c(Cl)cc3S)n2)cc1
inactive: PC-3 > 100 µM | Hs-578T 84.9 µM | T47D 63.2 µM | DU-145 > 100 µM | MDA-MB-435 > 100 µM

CC(=O)O[C@]12CCCCCC1C1(O)C(O)CCCC[C@H]12 (stereo partly drawn)
inactive: DMS-273 > 100 µM | 786-0 > 100 µM

O=S(=O)(O)c1ccc(/N=N\c2ccc(/N=N/c3ccc(/C=C/c4ccc(/N=[N+](\[O-])c5ccc(/C=C/c6ccc(/N=N/c7ccc(/N=N/c8ccc(S(=O)(=O)O)cc8)c8ccccc78)cc6S(=O)(=O)O)c(S(=O)(=O)O)c5)cc4S(=O)(=O)O)c(S(=O)(=O)O)c3)c3ccccc23)cc1
inactive: DMS-273 > 100 µM | HOP-18 30.5 µM

O=C(O)Cc1cccc2c1Oc1ccccc1S2
inactive: DMS-273 > 100 µM | 786-0 > 100 µM

C[C@]12CCC(=O)C(O)=C1CC[C@@H]1[C@@H]2CC[C@]2(C)C(=O)CC[C@@H]12 [FORMESTANE]
inactive: PC-3 > 100 µM | Hs-578T > 100 µM | RXF 631 > 100 µM | 786-0 > 100 µM | T47D > 100 µM | DU-145 > 100 µM | MDA-MB-435 > 100 µM
